Results taken from article PMC10279719 (Nature Communications, 2023).

Experiments:
CrkII^SH2 = biological target: T1, CrkII^SH2 (Homo sapiens, UniProt P46108); assay: SPR, CrkII SH2 binding to immobilised PEAK proteins; details: interactor as analyte over biotinylated PEAK protein (biotin CAPture); Biacore 8K+, HBS-TP with 500 mM NaCl, 20 °C; steady-state fit; mean ± S.E.M. (N = 3)
T1 construct: CrkII^SH2; UniProt P46108-1, residues 6–120; 8-His tag with TEV protease cleavage site (N); made in house; host or cells: E. coli C41 (DE3)
T1 sequence (P46108 6-120): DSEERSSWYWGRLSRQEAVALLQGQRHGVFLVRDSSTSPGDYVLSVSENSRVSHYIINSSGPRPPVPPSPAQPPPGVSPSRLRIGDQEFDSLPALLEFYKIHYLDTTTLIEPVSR
Method: (§1) SPR binding studies of PEAK PRM peptides to CrkII^NSH3 were performed using a Biacore S200 Instrument (Cytiva). Purified CrkII^NSH3 was diluted to 5 µg ml^−1 in 10 mM sodium acetate pH 4.0 and amine coupled at 25 °C to a Series S CM5 sensor chip, in HBS-N running buffer (20 mM HEPES pH 7.4, 150 mM NaCl) to a final immobilization level of 1100–1400 response units (RU), followed by surface deactivation using 1 M ethanolamine. A blank activation/deactivation was used for the reference surface. Peptide binding studies were performed at 20 °C in HBS-TP running buffer (20 mM HEPES pH 7.4, 150 mM NaCl, 1 mM TCEP, 0.005% (v/v) Tween-P20). […] Peptide stocks were further diluted to in running buffer to 10 or 20 µM and prepared as a 11-point concentration series (2-fold serial dilution, […] for PEAK PRM peptides, or 20 µM–20 nM for PEAK tandem motif peptides). Samples were injected in a multi-cycle run (flow rate 30 µl min^−1, contact time of 60 s, dissociation 120 s) without regeneration. Sensorgrams were double referenced, and steady-state binding data fitted using a 1:1 binding model using Biacore S200 Evaluation Software (Cytiva, v. 1.1).
(§2) SPR binding studies of PEAK proteins to full length CrkII/Grb2 and sub-domains were performed using a Biacore 8K+ Instrument (Cytiva) and analyzed using Biacore Insight Evaluation Software (v. 3.0.12.15655). […] Binding studies and steady-state data analysis were performed as described for CrkII^NSH3 with the inclusion of an additional surface regeneration step (60 s injection of 1 M NaCl) between cycles.

14-3-3ɣ = assay: SPR, 14-3-3ɣ binding to immobilised PEAK proteins; design: species or system human; details: 14-3-3ɣ analyte 0.46–1000 nM, multi-cycle, over immobilised biotinylated PEAK protein; Biacore 8K+, 20 °C; KD only an estimate (bivalent analyte model); N = 3
Method: PEAK proteins and adapters proteins (full length or individual domains) were biotinylated using EZ-Link™ NHS-PEG4-Biotin (Thermo Fisher) at a 1:1 molar ratio (100 µM) for 1 h at room temperature, then excess biotin was removed by buffer exchange using a Zeba™ Spin Desalting Column (Thermo Fisher) into HBS-T buffer (20 mM HEPES pH 7.4, 150 mM NaCl, 1 mM TCEP).
SPR binding studies of PEAK proteins to full length CrkII/Grb2 and sub-domains were performed using a Biacore 8K+ Instrument (Cytiva) and analyzed using Biacore Insight Evaluation Software (v. 3.0.12.15655). […] Biotinylated PEAK proteins (with or without Src phosphorylation; 500 nM in HBS-TP) were immobilized using a biotin CAPture kit (Cytiva) in HBS-TP running buffer at 20 °C. Binding studies and steady-state data analysis were performed as described for CrkII^NSH3 with the inclusion of an additional surface regeneration step (60 s injection of 1 M NaCl) between cycles. For Grb2^FL, Grb2^SH2, CrkII^SH2, CrkII^FL monomer and CrkII^FL dimer, to reduce nonspecific interactions the HBS-TP running buffer was supplemented with additional NaCl to a final concentration of 500 mM.
Binding studies for 14-3-3ɣ were undertaken in the same way in multi cycle mode (8 point, 3-fold serial dilution series, 0.46–1000 nM, 60 s contact time, 300 s dissociation).

CrkII^NSH3 = biological target: T2, CrkII^NSH3 (Homo sapiens, UniProt P46108); assay: SPR, CrkII NSH3 binding to immobilised PEAK proteins; details: read-out: CrkII NSH3 SPR KD; interactor as analyte over biotinylated PEAK protein captured with biotin CAPture kit; Biacore 8K+, HBS-TP, 20 °C; steady-state fit; mean ± SD (N = 2); read-out: CrkII-SH2 SPR KD
T2 construct: CrkII^NSH3; UniProt P46108-1, residues 134–191; 8-His tag with TEV protease cleavage site (N); made in house; host or cells: E. coli C41 (DE3)
T2 sequence (P46108 134-191): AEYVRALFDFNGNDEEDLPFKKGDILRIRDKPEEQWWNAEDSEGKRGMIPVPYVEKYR
Method: as §1, §2

[1] = tested on: PEAK3 pY24 phosphorylation in MCF-10A cells; details: MCF-10A cells treated with inhibitor; cited from earlier work

Molecule	SPR KD, CrkII-SH2 (CrkII^SH2)	SPR KD, 14-3-3ɣ (14-3-3ɣ)	Kd (CrkII^NSH3)	phosphorylation of PEAK3 at the TYSNL (pY24) site [1]
PEAK3-FL E.coli: full length human PEAK3 (1–473) purified from E. coli, no bound 14-3-3	No binding	No binding	9.6 µM	
COc1cc(-c2nn(CCN3CCC(N(C)C)CC3)c3ncnc(N)c23)ccc1NC(=O)OC(C)(C)C [eCF506]				blocked
Cc1nc(Nc2ncc(C(=O)Nc3c(C)cccc3Cl)s2)cc(N2CCN(CCO)CC2)n1 [dasatanib]				blocked
